Assay results: US10202361B2, “Pyridazinones as herbicides” (E I DU PONT DE NEMOURS AND COMPANY, priority 2014, dated 2019)

Assays:
Experiment in all cases: Test E pre-/postemergence greenhouse herbicide test
Type in all cases: in vivo
[1] = test system: sandbur (southern sandbur, Cenchrus echinatus); conditions: scale 0 to 100
Excerpt: (§1) Seeds of plant species selected from corn (Zea mays), soybean (Glycine max), lambsquarters (Chenopodium album), poinsettia, wild (wild poinsettia, Euphorbia heterophylla), pigweed, palmer (palmer pigweed, Amaranthus palmeri), waterhemp (common waterhemp, Amaranthus rudis), surinam grass (Brachiaria decumbens), crabgrass, large (large crabgrass Digitaria sanguinalis), crabgrass, Brazil (Brazilian crabgrass, Digitaria horizontalis), panicum, fall (fall panicum, Panicum dichotomiflorum), foxtail, giant (giant foxtail, Setaria faberii), foxtail, green (green foxtail, Setaria viridis), goosegrass (Eleusine indica), johnsongrass (Sorghum halepense), ragweed (common ragweed, Ambrosia elatior), barnyardgrass (Echinochloa crus-galli), sandbur (southern sandbur, Cenchrus echinatus), arrowleaf sida (Sida rhombifolia), ryegrass, Italian (Italian ryegrass, Lolium multiflorum), dayflower, VA (Virginia dayflower, Commelina virginica), field bindweed (Convolvulus arvensis), cocklebur (common cocklebur, Xanthium strumarium), morningglory (Ipomoea coccinea), nightshade (eastern black nightshade, Solanum ptycanthum), kochia (Kochia scoparia), nutsedge, yellow (yellow nutsedge, Cyperus esculentus), smartweed (ladysthumb smartweed, Polygonum persicaria), velvetleaf (Abutilon theophrasti), and beggarticks (hairy beggarticks, Bidens pilosa), were planted into a silt loam soil and treated preemergence with test chemicals formulated in a non-phytotoxic solvent mixture which included a surfactant.
(§2) At the same time, plants from these crop and weed species and also waterhemp_RES1, (ALS & Triazine resistant common waterhemp, Amaranthus rudis), and waterhemp_RES2, (ALS & HPPD resistant common waterhemp, Amaranthus rudis) were planted in pots containing Redi-Earth® planting medium (Scotts Company, 14111 Scottslawn Road, Marysville, Ohio 43041) comprising spaghnum peat moss, vermiculite, wetting agent and starter nutrients were treated with postemergence applications of test chemicals formulated in the same manner. Plants ranged in height from 2 to 18 cm for postemergence treatments (1- to 4-leaf stage). Treated plants and controls were maintained in a greenhouse for 14 to 21 d, after which time all species were compared to controls and visually evaluated. Plant response ratings, summarized in Table E, are based on a scale of 0 to 100 where 0 is no effect and 100 is complete control. A dash (-) response means no test result.

[2] = test system: arrowleaf sida (Sida rhombifolia); conditions: scale 0 to 100
Excerpt: as §1, §2

[3] = test system: lambsquarters (Chenopodium album); conditions: Preemergence, scale 0 to 100
Excerpt: as §1, §2

[4] = test system: kochia (Kochia scoparia); conditions: Preemergence, scale 0 to 100
Excerpt: as §1, §2

[5] = test system: morningglory (Ipomoea coccinea); conditions: Preemergence, scale 0 to 100
Excerpt: as §1, §2

[6] = test system: beggarticks (hairy beggarticks, Bidens pilosa); conditions: scale 0 to 100
Excerpt: as §1, §2

[7] = test system: waterhemp (common waterhemp, Amaranthus rudis); conditions: scale 0 to 100
Excerpt: as §1, §2

[8] = test system: crabgrass, Brazil (Brazilian crabgrass, Digitaria horizontalis); conditions: scale 0 to 100
Excerpt: as §1, §2

[9] = test system: soybean (Glycine max); conditions: scale 0 to 100
Excerpt: as §1, §2

[10] = test system: foxtail, green (green foxtail, Setaria viridis); conditions: Preemergence, scale 0 to 100
Excerpt: as §1, §2

[11] = test system: corn (Zea mays); conditions: scale 0 to 100
Excerpt: as §1, §2

[12] = test system: johnsongrass (Sorghum halepense); conditions: Preemergence, scale 0 to 100
Excerpt: as §1, §2

[13] = test system: barnyardgrass (Echinochloa crus-galli); conditions: scale 0 to 100
Excerpt: as §1, §2

[14] = test system: dayflower, VA (Virginia dayflower, Commelina virginica); conditions: scale 0 to 100
Excerpt: as §1, §2

[15] = test system: pigweed, palmer (palmer pigweed, Amaranthus palmeri); conditions: scale 0 to 100
Excerpt: as §1, §2

Structure (SMILES): COc1cc(=O)n(-c2ccc(F)cc2)nc1Cc1ccnc(C(F)(F)F)c1 [Compound 17, 2-(4-fluorophenyl)-5-methoxy-6-[[2-(trifluoromethyl)-4-pyridinyl]methyl]-3 (2H)-pyridazinone]
- Plant response rating: Sandbur ([1]; Postemergence, 16 g ai/ha): 10
- Plant response rating: Sandbur ([1]; Postemergence, 31 g ai/ha): 20
- Plant response rating: Sandbur ([1]; Postemergence, 62 g ai/ha): 20
- Plant response rating: Sandbur ([1]; Postemergence, 125 g ai/ha): 35
- Plant response rating: Sandbur ([1]; Postemergence, 250 g ai/ha): 75
- Plant response rating: Sandbur ([1]; Preemergence, 16 g ai/ha): 0
- Plant response rating: Sandbur ([1]; Preemergence, 31 g ai/ha): 5
- Plant response rating: Sandbur ([1]; Preemergence, 62 g ai/ha): 40
- Plant response rating: Sandbur ([1]; Preemergence, 125 g ai/ha): 70
- Plant response rating: Sandbur ([1]; Preemergence, 250 g ai/ha): 98
- Plant response rating: Arrowleaf Sida ([2]; Postemergence, 16 g ai/ha): 30
- Plant response rating: Arrowleaf Sida ([2]; Postemergence, 31 g ai/ha): 40
- Plant response rating: Arrowleaf Sida ([2]; Postemergence, 62 g ai/ha): 50
- Plant response rating: Arrowleaf Sida ([2]; Postemergence, 125 g ai/ha): 50
- Plant response rating: Arrowleaf Sida ([2]; Postemergence, 250 g ai/ha): 70
- Plant response rating: Arrowleaf Sida ([2]; Preemergence, 16 g ai/ha): 0
- Plant response rating: Arrowleaf Sida ([2]; Preemergence, 31 g ai/ha): 0
- Plant response rating: Arrowleaf Sida ([2]; Preemergence, 62 g ai/ha): 0
- Plant response rating: Arrowleaf Sida ([2]; Preemergence, 125 g ai/ha): 0
- Plant response rating: Arrowleaf Sida ([2]; Preemergence, 250 g ai/ha): 0
- Plant response rating: Lambsquarters ([3]; 16 g ai/ha): 98
- Plant response rating: Lambsquarters ([3]; 31 g ai/ha): 98
- Plant response rating: Lambsquarters ([3]; 62 g ai/ha): 98
- Plant response rating: Lambsquarters ([3]; 125 g ai/ha): 98
- Plant response rating: Lambsquarters ([3]; 250 g ai/ha): 100
- Plant response rating: Kochia ([4]; 16 g ai/ha): 70
- Plant response rating: Kochia ([4]; 31 g ai/ha): 90
- Plant response rating: Kochia ([4]; 62 g ai/ha): 95
- Plant response rating: Kochia ([4]; 125 g ai/ha): 98
- Plant response rating: Kochia ([4]; 250 g ai/ha): 98
- Plant response rating: Morningglory ([5]; 16 g ai/ha): 0
- Plant response rating: Morningglory ([5]; 31 g ai/ha): 35
- Plant response rating: Morningglory ([5]; 62 g ai/ha): 60
- Plant response rating: Morningglory ([5]; 125 g ai/ha): 65
- Plant response rating: Morningglory ([5]; 250 g ai/ha): 70
- Plant response rating: Beggarticks ([6]; Postemergence, 16 g ai/ha): 20
- Plant response rating: Beggarticks ([6]; Postemergence, 31 g ai/ha): 30
- Plant response rating: Beggarticks ([6]; Postemergence, 62 g ai/ha): 30
- Plant response rating: Beggarticks ([6]; Postemergence, 125 g ai/ha): 35
- Plant response rating: Beggarticks ([6]; Postemergence, 250 g ai/ha): 55
- Plant response rating: Beggarticks ([6]; Preemergence, 16 g ai/ha): 0
- Plant response rating: Beggarticks ([6]; Preemergence, 31 g ai/ha): 0
- Plant response rating: Beggarticks ([6]; Preemergence, 62 g ai/ha): 0
- Plant response rating: Beggarticks ([6]; Preemergence, 125 g ai/ha): 5
- Plant response rating: Beggarticks ([6]; Preemergence, 250 g ai/ha): 20
- Plant response rating: Waterhemp ([7]; Postemergence, 16 g ai/ha): 40
- Plant response rating: Waterhemp ([7]; Postemergence, 31 g ai/ha): 50
- Plant response rating: Waterhemp ([7]; Postemergence, 62 g ai/ha): 80
- Plant response rating: Waterhemp ([7]; Postemergence, 125 g ai/ha): 85
- Plant response rating: Waterhemp ([7]; Postemergence, 250 g ai/ha): 95
- Plant response rating: Waterhemp ([7]; Preemergence, 16 g ai/ha): 75
- Plant response rating: Waterhemp ([7]; Preemergence, 31 g ai/ha): 98
- Plant response rating: Waterhemp ([7]; Preemergence, 62 g ai/ha): 98
- Plant response rating: Waterhemp ([7]; Preemergence, 125 g ai/ha): 98
- Plant response rating: Waterhemp ([7]; Preemergence, 250 g ai/ha): 98
- Plant response rating: Crabgrass, Brazil ([8]; Postemergence, 16 g ai/ha): 20
- Plant response rating: Crabgrass, Brazil ([8]; Postemergence, 31 g ai/ha): 20
- Plant response rating: Crabgrass, Brazil ([8]; Postemergence, 62 g ai/ha): 20
- Plant response rating: Crabgrass, Brazil ([8]; Postemergence, 125 g ai/ha): 30
- Plant response rating: Crabgrass, Brazil ([8]; Postemergence, 250 g ai/ha): 70
- Plant response rating: Crabgrass, Brazil ([8]; Preemergence, 16 g ai/ha): 100
- Plant response rating: Crabgrass, Brazil ([8]; Preemergence, 31 g ai/ha): 100
- Plant response rating: Crabgrass, Brazil ([8]; Preemergence, 62 g ai/ha): 100
- Plant response rating: Crabgrass, Brazil ([8]; Preemergence, 125 g ai/ha): 100
- Plant response rating: Crabgrass, Brazil ([8]; Preemergence, 250 g ai/ha): 100
- Plant response rating: Soybean ([9]; Postemergence, 16 g ai/ha): 30
- Plant response rating: Soybean ([9]; Postemergence, 31 g ai/ha): 30
- Plant response rating: Soybean ([9]; Postemergence, 62 g ai/ha): 50
- Plant response rating: Soybean ([9]; Postemergence, 125 g ai/ha): 60
- Plant response rating: Soybean ([9]; Postemergence, 250 g ai/ha): 85
- Plant response rating: Soybean ([9]; Preemergence, 16 g ai/ha): 0
- Plant response rating: Soybean ([9]; Preemergence, 31 g ai/ha): 0
- Plant response rating: Soybean ([9]; Preemergence, 62 g ai/ha): 0
- Plant response rating: Soybean ([9]; Preemergence, 125 g ai/ha): 65
- Plant response rating: Soybean ([9]; Preemergence, 250 g ai/ha): 80
- Plant response rating: Foxtail, Green ([10]; 16 g ai/ha): 0
- Plant response rating: Foxtail, Green ([10]; 31 g ai/ha): 50
- Plant response rating: Foxtail, Green ([10]; 62 g ai/ha): 75
- Plant response rating: Foxtail, Green ([10]; 125 g ai/ha): 75
- Plant response rating: Foxtail, Green ([10]; 250 g ai/ha): 100
- Plant response rating: Corn ([11]; Postemergence, 16 g ai/ha): 0
- Plant response rating: Corn ([11]; Postemergence, 31 g ai/ha): 10
- Plant response rating: Corn ([11]; Postemergence, 62 g ai/ha): 10
- Plant response rating: Corn ([11]; Postemergence, 125 g ai/ha): 35
- Plant response rating: Corn ([11]; Postemergence, 250 g ai/ha): 65
- Plant response rating: Corn ([11]; Preemergence, 16 g ai/ha): 0
- Plant response rating: Corn ([11]; Preemergence, 31 g ai/ha): 0
- Plant response rating: Corn ([11]; Preemergence, 62 g ai/ha): 30
- Plant response rating: Corn ([11]; Preemergence, 125 g ai/ha): 65
- Plant response rating: Corn ([11]; Preemergence, 250 g ai/ha): 80
- Plant response rating: Johnsongrass ([12]; 16 g ai/ha): 0
- Plant response rating: Johnsongrass ([12]; 31 g ai/ha): 10
- Plant response rating: Johnsongrass ([12]; 62 g ai/ha): 35
- Plant response rating: Johnsongrass ([12]; 125 g ai/ha): 75
- Plant response rating: Johnsongrass ([12]; 250 g ai/ha): 90
- Plant response rating: Barnyardgrass ([13]; Postemergence, 16 g ai/ha): 0
- Plant response rating: Barnyardgrass ([13]; Postemergence, 31 g ai/ha): 10
- Plant response rating: Barnyardgrass ([13]; Postemergence, 62 g ai/ha): 20
- Plant response rating: Barnyardgrass ([13]; Postemergence, 125 g ai/ha): 20
- Plant response rating: Barnyardgrass ([13]; Postemergence, 250 g ai/ha): 65
- Plant response rating: Barnyardgrass ([13]; Preemergence, 16 g ai/ha): 0
- Plant response rating: Barnyardgrass ([13]; Preemergence, 31 g ai/ha): 20
- Plant response rating: Barnyardgrass ([13]; Preemergence, 62 g ai/ha): 35
- Plant response rating: Barnyardgrass ([13]; Preemergence, 125 g ai/ha): 80
- Plant response rating: Barnyardgrass ([13]; Preemergence, 250 g ai/ha): 80
- Plant response rating: Dayflower, VA ([14]; Postemergence, 16 g ai/ha): 10
- Plant response rating: Dayflower, VA ([14]; Postemergence, 31 g ai/ha): 10
- Plant response rating: Dayflower, VA ([14]; Postemergence, 62 g ai/ha): 15
- Plant response rating: Dayflower, VA ([14]; Postemergence, 125 g ai/ha): 30
- Plant response rating: Dayflower, VA ([14]; Postemergence, 250 g ai/ha): 40
- Plant response rating: Dayflower, VA ([14]; Preemergence, 16 g ai/ha): 0
- Plant response rating: Dayflower, VA ([14]; Preemergence, 31 g ai/ha): 10
- Plant response rating: Dayflower, VA ([14]; Preemergence, 62 g ai/ha): 20
- Plant response rating: Dayflower, VA ([14]; Preemergence, 250 g ai/ha): 80
- Plant response rating: Pigweed, Palmer ([15]; Postemergence, 16 g ai/ha): 20
- Plant response rating: Pigweed, Palmer ([15]; Postemergence, 31 g ai/ha): 20
- Plant response rating: Pigweed, Palmer ([15]; Postemergence, 62 g ai/ha): 30
- Plant response rating: Pigweed, Palmer ([15]; Postemergence, 125 g ai/ha): 80
- Plant response rating: Pigweed, Palmer ([15]; Postemergence, 250 g ai/ha): 100
- Plant response rating: Pigweed, Palmer ([15]; Preemergence, 16 g ai/ha): 0
- Plant response rating: Pigweed, Palmer ([15]; Preemergence, 31 g ai/ha): 0
- Plant response rating: Pigweed, Palmer ([15]; Preemergence, 62 g ai/ha): 25
- Plant response rating: Pigweed, Palmer ([15]; Preemergence, 125 g ai/ha): 80
- Plant response rating: Pigweed, Palmer ([15]; Preemergence, 250 g ai/ha): 100
